In one data set the target is CYP2D6 (Homo sapiens, UniProt P10635). Nature of the data set: Cytochrome inhibition, fluorometric microtiter plate assay (substrate AMMC). Type of data set: biochemical. The source says: (§1) Among the xenobiotic-metabolizing CYPs, five forms, CYP1A2, CYP2C9, CYP2C19, CYP2D6 and CYP3A4 appear to be the major CYP isoforms responsible for the oxidative metabolism of drugs or xenobiotics. Inhibition of CYP-mediated metabolism, often the mechanism for drug-drug interactions, can limit the use of a drug because of adverse clinical effects. The potential for CYP enzyme inhibition is routinely assessed by performing in vitro inhibition studies by measuring the rates of metabolism of a probe biotransformation in the presence and absence of test molecules. […] The incubation conditions for each cytochrome isoform were as follow: [table]

Another data set concerns the target CYP3A4 (Homo sapiens, UniProt P08684). Nature of the data set: Cytochrome inhibition, fluorometric microtiter plate assay (substrate BFC). Format: biochemical.
Description: as §1

In data set [1] the target is human histamine H3 receptors (Homo sapiens, UniProt Q9Y5N1). Nature of the data set: H3 binding ([125I]iodoproxyfan, membranes). The note with it: hH3 binding of the radioligand. The method, then: Membranes expressing human histamine H3 receptors were incubated 1 hour at room temperature in binding buffer containing 50 mM Na2HPO4/KH2PO4 pH 7.5 in a final volume of 200 µl. […] Non-specific binding was determined in the presence of 1 µM lmetit. The reaction was stopped by rapid filtration through GF/B filters (pre-soaked for 2 hours with 0.3% polyethyleneimine) followed by 3 ice cold binding buffer washes. The filter-bound radioactivity was measured in a liquid scintillation counter with 50µl of scintillation fluid.

Setting [2] is: compounds of the invention, human recombinant CYP2D6.
Where [3] appears, read: compounds of the invention, human recombinant CYP3A4.

SMILES strings stand for the structures. Like-named read-outs stand apart in the source and are kept apart here. A value given as a limit tells only on which side of the number the result lay.

One may read the Kd as the concentration at which binding is half-saturated. Read a low Kd as tighter binding.

Chain of CYP2D6 (P10635 whole entry, canonical isoform): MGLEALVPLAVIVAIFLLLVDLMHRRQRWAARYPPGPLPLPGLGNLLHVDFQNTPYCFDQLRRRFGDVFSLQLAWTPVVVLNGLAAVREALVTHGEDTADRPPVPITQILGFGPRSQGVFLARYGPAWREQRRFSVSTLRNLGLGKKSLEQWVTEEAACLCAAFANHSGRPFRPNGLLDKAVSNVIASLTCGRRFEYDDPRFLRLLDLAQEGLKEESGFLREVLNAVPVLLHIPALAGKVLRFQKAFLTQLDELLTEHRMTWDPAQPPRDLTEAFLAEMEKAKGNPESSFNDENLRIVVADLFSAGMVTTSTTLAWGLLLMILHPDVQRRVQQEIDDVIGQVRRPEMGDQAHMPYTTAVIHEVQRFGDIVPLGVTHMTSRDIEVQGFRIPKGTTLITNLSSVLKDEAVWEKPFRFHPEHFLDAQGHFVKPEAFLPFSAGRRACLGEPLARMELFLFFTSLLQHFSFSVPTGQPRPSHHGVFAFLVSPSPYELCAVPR
Chain of CYP3A4 (P08684 whole entry): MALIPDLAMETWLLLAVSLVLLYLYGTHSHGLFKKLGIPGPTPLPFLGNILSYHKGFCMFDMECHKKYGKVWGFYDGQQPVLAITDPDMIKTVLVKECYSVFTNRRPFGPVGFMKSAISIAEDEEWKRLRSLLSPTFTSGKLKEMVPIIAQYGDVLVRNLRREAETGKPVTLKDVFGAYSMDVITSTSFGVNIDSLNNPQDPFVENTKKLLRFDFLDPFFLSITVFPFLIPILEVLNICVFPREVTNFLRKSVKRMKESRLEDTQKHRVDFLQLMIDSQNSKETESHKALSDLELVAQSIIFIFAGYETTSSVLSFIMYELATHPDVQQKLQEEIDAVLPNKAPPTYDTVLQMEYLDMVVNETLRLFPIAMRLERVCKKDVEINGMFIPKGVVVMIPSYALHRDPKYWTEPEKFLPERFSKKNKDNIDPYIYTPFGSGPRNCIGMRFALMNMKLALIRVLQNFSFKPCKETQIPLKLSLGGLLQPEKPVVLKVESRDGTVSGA
Chain of human histamine H3 receptors (Q9Y5N1 whole entry): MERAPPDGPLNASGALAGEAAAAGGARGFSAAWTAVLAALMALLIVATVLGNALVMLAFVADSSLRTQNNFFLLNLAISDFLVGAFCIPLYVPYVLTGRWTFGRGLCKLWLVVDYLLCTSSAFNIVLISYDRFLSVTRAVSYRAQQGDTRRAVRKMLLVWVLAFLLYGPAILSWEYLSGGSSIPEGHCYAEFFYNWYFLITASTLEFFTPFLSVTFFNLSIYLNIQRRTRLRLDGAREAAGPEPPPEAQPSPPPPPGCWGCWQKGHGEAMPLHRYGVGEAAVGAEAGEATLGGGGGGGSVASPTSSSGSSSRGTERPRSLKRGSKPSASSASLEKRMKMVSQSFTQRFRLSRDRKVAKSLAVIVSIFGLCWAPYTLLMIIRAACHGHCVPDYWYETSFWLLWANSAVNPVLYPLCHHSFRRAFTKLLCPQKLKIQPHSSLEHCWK

As to `C[C@H]1C[C@H](C)CN(CCCOc2ccc(C(=O)N(C)C)cc2)C1` (relative stereo) [Example 1, trans-1-{3-[4-(N,N-dimethylcarbamoyl)phenoxy]propyl}-3,5-dimethylpiperidine], at CYP2D6 (setting [2]), the IC50 is greater than 100000 nM.

With `Cc1cc(-c2ccc(OCCCN3CCC[C@H](C)C3)cc2)ccn1` [Example 59], the IC50 on CYP3A4 (read-out: CYP3A4 (IC50, concentrations for 50% inhibition), comparative compounds of WO 00/06254) is greater than 1000 nM; at CYP2D6 (read-out: CYP2D6 (IC50, concentrations for 50% inhibition), comparative compounds of WO 00/06254) it was 1000 nM.

As for `C[C@H]1C[C@H](C)CN(CCCOc2ccc(C3=NCCC3)cc2)C1` (relative stereo) [Example 17, trans-1-{3-[4-(4,5-dihydro-3H-pyrrol-2-yl)phenoxy]propyl}-3,5-dimethylpiperidine], the IC50 at CYP3A4 (setting [3]) and on CYP2D6 (setting [2]) was greater than 100000 nM throughout.

With `Ic1ccc(COCCCc2cnc[nH]2)cc1` [[^125]iodoproxyfan], the affinity in data set [1], expressed as Kd, was 0.078 ± 0.006 nM.

With `Cc1ccc(-c2ccc(OCCCN3CCCCC3)cc2)cc1` [Example 24, 1-{3-[(4'-methylbiphenyl-4-yl)oxy]propyl}piperidine], the IC50 at CYP3A4 (setting [3]) is greater than 2000 nM.

(Values after patent EP1717234A1, “Phenoxypropylpiperidines and -pyrrolidines and their use as histamine H3-receptor ligands” (BIOPROJET, priority 2005, dated 2006).)
